From patent publication US20040024024A1, “Aromatic sulfone hydroxamates and their use as protease inhibitors” (priority 2001, published 2004)

Key:
Human recombinant MMP-2 = biological target: T1, Human recombinant MMP-2 (Homo sapiens, UniProt P08253); assay: In vitro MMP inhibition, IC50 determination (fluorogenic substrate I); type: biochemical; conditions: value outside parentheses (Ki in parenthesis)
T1 construct: made in house; host or cells: MMP-2-transfected p2AHT2 cells
T1 sequence (P08253 110-660): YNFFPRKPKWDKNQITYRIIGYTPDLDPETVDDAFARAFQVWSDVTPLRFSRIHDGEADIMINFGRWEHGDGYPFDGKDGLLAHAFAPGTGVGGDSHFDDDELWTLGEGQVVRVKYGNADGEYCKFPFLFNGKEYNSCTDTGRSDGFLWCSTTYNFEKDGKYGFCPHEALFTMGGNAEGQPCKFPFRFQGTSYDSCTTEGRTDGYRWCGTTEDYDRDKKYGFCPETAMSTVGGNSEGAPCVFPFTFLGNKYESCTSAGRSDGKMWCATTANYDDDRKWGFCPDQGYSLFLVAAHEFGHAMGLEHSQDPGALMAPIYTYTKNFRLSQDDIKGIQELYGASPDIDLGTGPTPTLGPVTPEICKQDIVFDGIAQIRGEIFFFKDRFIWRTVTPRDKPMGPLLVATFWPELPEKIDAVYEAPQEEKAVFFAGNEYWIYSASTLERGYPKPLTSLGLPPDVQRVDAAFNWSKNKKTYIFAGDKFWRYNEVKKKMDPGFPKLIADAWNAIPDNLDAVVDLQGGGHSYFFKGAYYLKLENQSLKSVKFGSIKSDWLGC
Protocol: (§1) Several hydroxamates and salts thereof were analyzed in in vitro assays to determine their ability to inhibit the MMP cleavage of peptide substrates. Inhibition (Ki) and IC50 constants were calculated from the assayed hydroxamate-MMP interactions.
(§2) Human recombinant MMP-1, MMP-2, MMP-9, MMP-13, and MMP-14 were used in this assay. All enzymes were prepared in Assignee's laboratories following usual laboratory procedures. Protocols for the preparation and use of these enzymes are available in the scientific literature. See, e.g., Enzyme Nomenclature (Academic Press, San Diego, Calif., 1992) (and the citations therein). See also, Frije et al., J. Biol. Chem., 26(24), 16766-73 (1994).
The MMP-2 proenzyme was purified by gelatin Sepharose chromatography from MMP-2-transfected p2AHT2 cells provided by Dr. Gregory Goldberg of Washington University (St. Louis, Mo.).
(§3) All MMPs were activated using 4-aminophenylmercuric acetate (“APMA”, Sigma Chemical, St. Louis, Mo.) or trypsin. MMP-9 also was activated using human recombinant MMP-3 (purified in Assignee's laboratory following standard cloning and purification techniques).
(§4) Two fluorogenic, methoxycoumarin-containing polypeptide substrates were used in the MMP inhibition assays:
(§5) MCA-ProLeuGlyLeuDpaAlaArgNH2 (I)
(§6) Here, “Dpa” is 3-(2,4-dinitrophenyl)-L-2,3-diaminopropionyl group, and “MCA” is 7-methoxycoumarin-4-yl acetyl. Substrate (I) was purchased from Baychem (Redwood City, Calif.), and substrate II was prepared Assignee's laboratory. Substrate I was used in the IC50 determination assays, while substrate II was used in the Ki determination assays. In the absence of MMP inhibitory activity, either substrate is cleaved at the Gly-Leu peptide bond. This cleavage separates the highly fluorogenic peptide from the 2,4-dinitrophenyl quencher, thus resulting in increase of fluorescent intensity.
(§7) The stock solutions of the assayed hydroxamates (or salts thereof) were prepared in 1% dimethyl sulfoxide (DMSO). These stock solutions were diluted in Buffer A (100 mM Tris-HCl, 100 mM NaCl, 10 mM CaCl2, 0.05% polyoxyethylene 23 lauryl ether, pH 7.5) to obtain solutions with different hydroxamate concentrations, i.e., assay solutions with different concentrations of the assayed MMP inhibitory compound. The experiment controls contained the same amount of Buffer A/DMSO as the assayed sample, but contained no hydroxamate (or salt thereof).
(§8) The assays from which the IC50 determinations were made were performed as follows. The MMPs were activated with either trypsin or APMA (4-aminophenylmercuric acetate, Sigma Chemical, St. Louis, Mo.). The assayed hydroxamate samples were, incubated in Microfluorrm White Plates (Dynatech, Chantilly, VA) and analyzed on a Perkin Elmer L550 plate reader (Norwalk, Conn.). The excitation wavelength was 328 nm, and the emission wavelength—415 nm. All samples (assayed hydroxamates and controls) were incubated in separate plates at room temperature in the presence of 4 μM of MMP substrate (I). As stated in the previous paragraph, samples containing varying concentrations of the same assayed hydroxamate were prepared. Inhibition was measured as a reduction in fluorescent intensity as a function of MMP inhibitor concentration.

Human recombinant MMP-13 = biological target: T2, Human recombinant MMP-13 (Homo sapiens, UniProt P45452); assay: as above; type: biochemical; conditions: value outside parentheses (Ki in parenthesis)
T2 construct: made in house; host or cells: baculovirus / insect cells
Protocol: as §1, §2
The expressed proenzyme was first purified over a heparin agarose column, and then over a chelating zinc chloride column. The proenzyme was then activated by APMA for use in the assay. Further details on baculovirus expression systems may be found in, for example, Luckow et al., J. Virol., 67, 4566-79 (1993). See also, O'Reilly et al, Baculovirus Expression Vectors: A Laboratory Manual (W. H. Freeman and Co., New York, N.Y., 1992). See also, King et al., The Baculovirus Expression System: A Laboratory Guide (Chapman & Hall, London, England, 1992).
as §3, §4, §5, §6, §7, §8

| Compound | IC50 (Human recombinant MMP-2) | IC50 (Human recombinant MMP-13) |
| --- | --- | --- |
| O=C(NO)C1(S(=O)(=O)c2ccc(OCCCN(c3nc4ccccc4s3)c3nc4ccccc4s3)cc2)CCOCC1 [Example 320] | 5.86 µM | 6.11 µM |
| COc1ccc2cc(C(=O)CCCCOc3ccc(S(=O)(=O)C4(C(=O)NO)CCOCC4)cc3)ccc2c1 [Example 328] | 0.0613 µM | < 0.0001 µM |
| CON(C)C(=O)CCCCOc1ccc(S(=O)(=O)C2(C(=O)NO)CCOCC2)cc1 [Example 329] | 0.103 µM | 0.0086 µM |
| COc1ccc(C(=O)NCCCCNc2ccc(S(=O)(=O)C3(C(=O)NO)CCOCC3)cc2)cc1 [Example 331] | 0.386 µM | 0.261 µM |
| COc1cc2c(cc1OC)C(c1ccccc1)NC(C(=O)OCCCCOc1ccc(S(=O)(=O)C3(C(=O)NO)CCOCC3)cc1)C2 (stereo not shown) [Example 336] | 0.301 µM | 0.0198 µM |
| COc1cc2c(cc1OC)CN(CCCCOc1ccc(S(=O)(=O)C3(C(=O)NO)CCOCC3)cc1)C(C)C2 (stereo not shown) [Example 337] | 0.0419 µM | 0.0122 µM |
| COc1cc2c(cc1OC)CN(CCCCOc1ccc(S(=O)(=O)C3(C(=O)NO)CCOCC3)cc1)CC2 [Example 338] | 0.0206 µM | 0.138 µM |
| COc1ccc(C(=O)NCCNc2ccc(S(=O)(=O)C3(C(=O)NO)CCOCC3)cc2)cc1 [Example 339] | 1.21 µM | 0.933 µM |
| O=C1c2cc3ccccc3cc2C(=O)N1CCCOc1ccc(S(=O)(=O)C2(C(=O)NO)CCOCC2)cc1 [Example 343] | 7.7 µM | 0.0024 µM |
| CC(C)N(Cc1ccc(C(=O)CCCCOc2ccc(S(=O)(=O)C3(C(=O)NO)CCOCC3)cc2)cc1)C(C)C [Example 344] | 0.0127 µM | 0.0046 µM |
| COc1ccc(/C(C)=C/CCCOc2ccc(S(=O)(=O)C3(C(=O)NO)CCOCC3)cc2)c(OC)c1 [Example 345] | 0.271 µM | 0.0143 µM |
| COc1ccc(C(C)(O)CCCCOc2ccc(S(=O)(=O)C3(C(=O)NO)CCOCC3)cc2)cc1 (stereo not shown) [Example 347] | 0.0103 µM | 0.0018 µM |
| COc1ccc(C(=CCCCOc2ccc(S(=O)(=O)C3(C(=O)NO)CCOCC3)cc2)c2ccc(OC)cc2)cc1 [Example 349] | 0.505 µM | 0.039 µM |
| COc1ccc(C(=O)NCCCNc2ccc(S(=O)(=O)C3(C(=O)NO)CCOCC3)cc2)cc1 [Example 358] | 0.768 µM | 0.0146 µM |
| COc1ccc(C(=O)NCCCOc2ccc(S(=O)(=O)C3(C(=O)NO)CCOCC3)cc2)cc1OC [Example 362] | 0.347 µM | 0.0037 µM |
| COc1ccccc1C(=O)NCCCOc1ccc(S(=O)(=O)C2(C(=O)NO)CCOCC2)cc1 [Example 363] | 0.43 µM | 0.007 µM |
| O=C(NCCCOc1ccc(S(=O)(=O)C2(C(=O)NO)CCOCC2)cc1)c1ccc(-c2ccccc2)cc1 [Example 365] | 0.021 µM | 0.0006 µM |
| O=C(NCCCOc1ccc(S(=O)(=O)C2(C(=O)NO)CCOCC2)cc1)c1ccc2ccccc2c1 [Example 366] | 0.347 µM | 0.0003 µM |
| N#Cc1cccc(C(=O)NCCCOc2ccc(S(=O)(=O)C3(C(=O)NO)CCOCC3)cc2)c1 [Example 367] | 0.235 µM | 0.0045 µM |
| O=C(NCCCOc1ccc(S(=O)(=O)C2(C(=O)NO)CCOCC2)cc1)c1ccc([N+](=O)[O-])cc1 [Example 369] | 0.155 µM | 0.0015 µM |
| Cc1cc(C)c(C(=O)NCCCOc2ccc(S(=O)(=O)C3(C(=O)NO)CCOCC3)cc2)c(C)c1 [Example 370] | 0.9 µM | 0.037 µM |

| Compound | IC50 (Human recombinant MMP-2) | IC50 (Human recombinant MMP-13) |
| --- | --- | --- |
| O=C(NCCCOc1ccc(S(=O)(=O)C2(C(=O)NO)CCOCC2)cc1)c1ccccc1O [Example 372] | 0.21 µM | 0.006 µM |
| CC(C)(C)c1ccc(C(=O)NCCCOc2ccc(S(=O)(=O)C3(C(=O)NO)CCOCC3)cc2)cc1 [Example 374] | 0.8 µM | 0.008 µM |
| O=C(NCCCOc1ccc(S(=O)(=O)C2(C(=O)NO)CCOCC2)cc1)c1cccc2ccccc12 [Example 375] | 0.425 µM | 0.017 µM |
| COc1ccc2cc(O)c(C(=O)NCCCOc3ccc(S(=O)(=O)C4(C(=O)NO)CCOCC4)cc3)cc2c1 [Example 377] | 1.27 µM | 0.0059 µM |
| O=C(NCCCOc1ccc(S(=O)(=O)C2(C(=O)NO)CCOCC2)cc1)c1cc2cc(O)ccc2cc1O [Example 378] | 0.655 µM | 0.0027 µM |
| O=C(NCCCOc1ccc(S(=O)(=O)C2(C(=O)NO)CCOCC2)cc1)c1cc2cccc(O)c2cc1O [Example 379] | 0.258 µM | 0.01 µM |
| COc1ccc2cc(C(=O)NCCCOc3ccc(S(=O)(=O)C4(C(=O)NO)CCOCC4)cc3)ccc2c1 [Example 380] | 0.45 µM | 0.0002 µM |
| O=C(NCCCOc1ccc(S(=O)(=O)C2(C(=O)NO)CCOCC2)cc1)c1ccc(Cl)nc1 [Example 381] | 0.193 µM | 0.0014 µM |
| O=C(NCCCOc1ccc(S(=O)(=O)C2(C(=O)NO)CCOCC2)cc1)c1ccccn1 [Example 382] | 0.059 µM | 0.0017 µM |
| O=C(NCCCOc1ccc(S(=O)(=O)C2(C(=O)NO)CCOCC2)cc1)c1ccncc1 [Example 383] | 0.351 µM | 0.0075 µM |
| N#Cc1ccc(C(=O)NCCCOc2ccc(S(=O)(=O)C3(C(=O)NO)CCOCC3)cc2)cc1 [Example 387] | 0.083 µM | 0.0022 µM |
| O=C(NCCCOc1ccc(S(=O)(=O)C2(C(=O)NO)CCOCC2)cc1)c1ccc2ccccc2c1O [Example 388] | 0.185 µM | 0.002 µM |
| O=C(NCCCOc1ccc(S(=O)(=O)C2(C(=O)NO)CCOCC2)cc1)c1ccc2ccccc2n1 [Example 389] | 0.047 µM | 0.0005 µM |
| Cn1cccc1C(=O)NCCCOc1ccc(S(=O)(=O)C2(C(=O)NO)CCOCC2)cc1 [Example 391] | 0.9 µM | 0.007 µM |
| COc1ccc(C(=O)NCCOc2ccc(S(=O)(=O)C3(C(=O)NO)CCOCC3)cc2)cc1 [Example 393] | 0.05 µM | 0.045 µM |
| C[C@H](COc1ccc(S(=O)(=O)C2(C(=O)NO)CCOCC2)cc1)NC(=O)c1ccc(N(C)C)cc1 [Example 394] | 3.2 µM | 1.9 µM |
| C[C@@H](COc1ccc(S(=O)(=O)C2(C(=O)NO)CCOCC2)cc1)NC(=O)c1ccc(N(C)C)cc1 [Example 395] | 6 µM | 0.305 µM |
| COc1ccc(C(=O)NCCCCOc2ccc(S(=O)(=O)C3(C(=O)NO)CCOCC3)cc2)cc1 [Example 396] | 0.004 µM | 0.004 µM |
| CN(C)c1ccc(C(=O)NCCCCOc2ccc(S(=O)(=O)C3(C(=O)NO)CCOCC3)cc2)cc1 [Example 397] | 0.003 µM | 0.014 µM |
| O=C(NCCCOc1ccc(S(=O)(=O)C2(C(=O)NO)CCOCC2)cc1)C1CCCCC1 [Example 399] | 0.65 µM | 0.008 µM |
